According to patent US6057371A, “Sigma receptor ligands and the use thereof” (Virginia Commonwealth University, priority 1992, dated 2000):
Counter-ions that a name gives are not always drawn. Like-named read-outs stand apart in the source and are kept apart here.

What was measured:
[1] = molecular target: sigma receptor; experiment: Sigma receptor binding, [^3 H]DTG, brain membranes (both sigma-1 and sigma-2 sites); design: species or system guinea pig; details: for IC50: Table 6; for Ki: running text, read-out: sigma receptor Ki
Description: Sigma receptor binding assays using guinea pig brain membrane homogenates and the radioligand [^3 H]DTG were conducted as described by Weber et al.. […] Briefly, frozen whole guinea-pig brains (Biotrol, Indianapolis, Ind.) were homogenized in 10 volumes (w/v) of ice-cold 320 mM sucrose using a Brinkman polytron. The homogenate was centrifuged at 1,000× g for 20 minutes at 4° C. The supernatant was centrifuged at 20,000× g for 20 minutes at 4° C. The resulting pellet was resuspended in 10 initial volumes of 50 mM Tris/HCl buffer at pH 7.4 and centrifuged at 20,000× g for 20 minutes at 4° C. The resulting pellet was resuspended in 5 initial volumes ice-cold 50 mM Tris/Hcl […], and the final volume was adjusted to yield a protein concentration of 3 mg/ml. Aliquots of 20-ml were stored at -70° C. until used, with no detectable loss of binding.
The protein concentration in the 1-ml final incubation volume was 800 ug/ml, corresponding to 32 mg of brain tissue (original wet weight) and to a tissue concentration within the linear range for specific binding. […] Incubations were terminated after 90 minutes at room temperature by addition of 4 ml of ice-cold 50 mM Tris/HCl (pH 7.4) and rapid filtration of the membrane suspension through Whatman GF/B glass-fiber filters under vacuum, using a 48-well cell harvester (Brandel). The filters were washed 2 times with 4 ml of 50 mM Tris/HCl (pH 7.4). Each filter was suspended in 10 ml Cytoscint (ICI), and radioactivity was measured by liquid scintillation spectrometry at a counting efficiency of approximately 50%. IC50 values were determined by non-linear regression analyis.
(§1) Further sigma receptor binding assays against [^3 H]DTG and 5HT-1A binding assays were conducted according to the procedure outlined in the previous examples.
Radioligand Binding. […] Briefly, membranes (P2 microsomal fraction) were diluted 1:3 with 50 mM Tris HCl (pH 7.4) and 0.4 mL was combined with 50 μL [^3 H]DTG (1-2 nM final concentration) and 50 μL of competing drug or buffer. After 90 min at room temperature, incubation was terminated by rapid filtration under vacuum through Whatman GF/B glass fiber filters using a Brandel 48-well cell harvester. Filters were washed three times with 5 mL of cold Tris HCl buffer and each filter was suspended in 5 mL of Cytoscint (ICN Biomedical). Radioactivity was measured by liquid scintillation spectrometry at a counting efficiency of 50%.

[2] = molecular target: T1, sigma-2 binding site (Cavia porcellus, UniProt H0V073); experiment: biochemical; design: species or system guinea pig
T1 construct: Guinea pig whole membrane preparations (P2 microsomal fraction); from tissue; host or cells: guinea pig membranes (P2 microsomal fraction), as described by Weber et al; brain inferred from the sister test b489
T1 sequence (H0V073 1-176): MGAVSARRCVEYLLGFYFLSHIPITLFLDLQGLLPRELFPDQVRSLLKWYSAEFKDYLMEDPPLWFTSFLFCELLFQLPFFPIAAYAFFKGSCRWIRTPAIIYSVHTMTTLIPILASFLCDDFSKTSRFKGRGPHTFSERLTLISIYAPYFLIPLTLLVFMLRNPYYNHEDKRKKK
Description: For the standard equilibrium assay, the mixtures were incubated for 30 min. at room temperature, then filtered and the radioactivity determined as described above.

[3] = molecular target: T2, sigma-1 binding site (Cavia porcellus, UniProt Q60492); experiment: biochemical; design: species or system guinea pig; details: for sigma-2/sigma-1 selectivity: Example 8; for IC50 ratio of sigma-1/sigma-2 (sigma-1 selective compounds): less than about 0.1, see Table 10
T2 construct: Guinea pig whole membrane preparations (P2 microsomal fraction); from tissue; host or cells: guinea pig membranes (P2 microsomal fraction), as described by Weber et al; brain inferred from the sister test b489
T2 sequence (Q60492 whole entry): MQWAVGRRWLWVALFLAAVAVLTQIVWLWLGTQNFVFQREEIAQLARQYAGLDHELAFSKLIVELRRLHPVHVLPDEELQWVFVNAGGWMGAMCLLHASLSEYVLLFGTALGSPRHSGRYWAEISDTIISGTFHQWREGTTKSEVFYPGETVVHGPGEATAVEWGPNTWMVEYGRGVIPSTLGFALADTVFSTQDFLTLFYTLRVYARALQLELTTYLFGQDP
Description: [^3 H]DTG was purchased from DuPont/NEN.
The radioactivity on the filters was determined by scintillation spectrometry at an efficiency of about 50% using Cytoscint (ICN) scintillation fluid.

[4] = molecular target: T3, 5-HT1A receptor (Rattus norvegicus, UniProt P19327); experiment: biochemical; assay type: binding; design: 47: 529-540 (1986); from tissue; host or cells: brain tissue, inferred from the cited method (rat frontal cortex)
T3 sequence (P19327 1-422): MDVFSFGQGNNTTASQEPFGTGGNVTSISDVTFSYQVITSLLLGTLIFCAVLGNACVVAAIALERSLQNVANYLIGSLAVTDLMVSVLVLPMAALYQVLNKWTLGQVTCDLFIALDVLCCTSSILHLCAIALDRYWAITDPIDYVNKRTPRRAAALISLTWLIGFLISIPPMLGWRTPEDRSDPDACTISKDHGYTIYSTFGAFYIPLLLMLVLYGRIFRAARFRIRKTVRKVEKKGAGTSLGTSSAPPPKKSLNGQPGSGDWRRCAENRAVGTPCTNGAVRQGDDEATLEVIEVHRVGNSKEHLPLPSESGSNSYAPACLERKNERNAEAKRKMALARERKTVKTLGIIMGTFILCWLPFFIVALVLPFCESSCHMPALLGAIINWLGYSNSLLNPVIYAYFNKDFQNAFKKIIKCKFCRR
Description: as §1

[5] = Table 10, read-out: SIGMA-2 KI vs. 3H-DTG + PENTAZOCINE MEAN
[6] = Table 10, read-out: SIGMA-1 KI vs. 3H-PENTAZOCINE MEAN
[7] = SIGMA-2 KI vs. 3H-DTG + PENTAZOCINE MEAN
[8] = Table 6, read-out: 5HT-1A (nM) MEAN
[9] = SIGMA-1 KI vs. 3H-PENTAZOCINE MEAN

| Structure (SMILES) | IC50 ([1]; [^3 H]DTG) [nM] | Ki [2, 7] [nM] | IC50 [4, 8] [nM] | also measured |
| --- | --- | --- | --- | --- |
| c1ccc(CCCCCN2CCCCC2)cc1 [Compound 124, N-(5-phenylpentyl)piperidine] | 2.05 | – | – | Ki [2, 5]: 49.9 nM; sigma-2/sigma-1 selectivity [3]: 100; Ki [3, 6]: 0.48 nM; S1/S2 Ratio ([3]; Table 10, sigma-1/sigma-2): 0.010; IC50 ratio of sigma-1/sigma-2 (sigma-1 selective compounds) [3]: less than 0.1 |
| CN(C)CCCCCC1CCCCC1 [Compound 128, N,N-Dimethyl-5-cyclohexylpentylamine] | 2.87 | – | – | change in sigma receptor affinity vs. analog ([1]; Examples 5 and 6, [^3 H]DTG): ~10 fold; Ki ([1]; Examples 5 and 6): 2.6 nM; Ki [2, 5]: 195 nM; sigma-2/sigma-1 selectivity [3]: 650; Ki [3, 6]: 0.26 nM; S1/S2 Ratio ([3]; Table 10, sigma-1/sigma-2): 0.001; IC50 ([3]; Table 16, read-out: Sigma-1 IC50): 0.26 nM; IC50 ratio of sigma-1/sigma-2 (sigma-1 selective compounds) [3]: less than 0.1 |
| CN(CCCc1ccc2ccccc2c1)CCCc1ccc2ccccc2c1 [Compound 74] | 81.9 | – | – | Ki [2, 5]: 461 nM; Ki [3, 6]: 30 nM; S1/S2 Ratio ([3]; Table 10, sigma-1/sigma-2): 0.065; IC50 ratio of sigma-1/sigma-2 (sigma-1 selective compounds) [3]: less than 0.1 |
| C=CCN1CC[C@@]2(C)c3cc(O)ccc3C[C@@H]1[C@@H]2C [(-)SKF 10047, reference compound] | – | 9130 | – | – |
| CC(C)=CCN(C)[C@@H](C)Cc1ccccc1 [Compound 114] | 6.71 | – | 34000 | – |
| c1ccc(CCCCNCCCc2ccccc2)cc1 [Compound 72] | 7.23 | – | 11.3 | – |
| C[C@@H](Cc1ccccc1)N(C)CCCc1ccc2ccccc2c1 [Compound 68] | 3.25 | – | 1320 | – |
| CN1CCN(CCCN2c3ccccc3Sc3ccc(C(F)(F)F)cc32)CC1 [Trifluperizine, reference compound] | – | 161 | – | Ki [3, 9]: 561 nM; S1/S2 Ratio ([3]; Table 11, sigma-1/sigma-2): 3.497 |
| CCCN1CCC[C@@H](c2cccc(O)c2)C1 [(-)3-PPP, reference compound] | – | 1260 | – | Ki [3, 9]: 312 nM; S1/S2 Ratio ([3]; Table 11, sigma-1/sigma-2): 0.248 |
| CC(C)CCN(C)[C@@H](C)Cc1ccccc1 [Compound 115] | 3.04 | – | 20000 | – |
| O=C(c1ccccc1)N1CCN(CCCCc2ccccc2)CC1 [Compound 80, N-4(4-phenylbutyl)-N'-benzoylpiperazine] | – | – | – | Ki [2, 5]: 965 nM; Ki [3, 6]: 71.8 nM |
| CC(Cc1ccc(OCc2ccccc2)cc1)NCCCc1ccccc1 (stereo not drawn) [Compound 85] | 28.1 | – | 1150 | – |
| CN(CCCCCc1ccccc1)Cc1ccccc1 [Compound 137, N-Benzyl-N-methyl-5-phenylpentylamine] | 1.11 | – | – | Ki [2, 5]: 12.5 nM; IC50 ([2]; Table 18, read-out: IC50 (nM) at sigma-2): 12 nM |
| COc1ccc(OC)c(CC(C)NCCCCc2ccccc2)c1 (stereo not drawn) [Compound 65] | 72.9 | – | 182 | – |
| CCCc1ccc(CC(C)NCCCc2ccccc2)cc1 (stereo not drawn) [Compound 84] | 6.43 | – | 168 | – |
| C[C@@H](Cc1ccccc1)N(C)CCc1ccccc1 [Compound 36] | – | – | – | Ratio 5-HT1A /σ ([4]; Table 5): 239; IC50 ([4]; Table 5, read-out: 5-HT1A IC50): 1630 nM |
| CC(C)(C)[C@@]1(O)CCN2C[C@@H]3c4ccccc4CCc4cccc(c43)[C@H]2C1 [(-)Butaclamol, reference compound] | – | 3420 | – | – |
| COc1ccc2c(c1)[C@]13CCCC[C@@H]1[C@H](C2)N(C)CC3 [Dextromethorphan, reference compound] | – | 15000 | – | Ki ([3]; SIGMA-1 KI vs. 3H-P[…]): 522 nM; S1/S2 Ratio ([3]; guinea pig, microsomes): 0.035 |
| CCCN1CCC[C@H](c2cccc(O)c2)C1 [(+)3-PPP, reference compound] | – | 493 | – | Ki [3, 9]: 47.7 nM; S1/S2 Ratio ([3]; Table 11, sigma-1/sigma-2): 0.097 |
| CCCc1ccc(CC(C)N(C)CCCc2ccccc2)cc1 (stereo not drawn) [Compound 86] | 2.43 | – | 502 | – |

| Structure (SMILES) | IC50 ([1]; [^3 H]DTG) [nM] | Ki [2, 7] [nM] | IC50 [4, 8] [nM] | also measured |
| --- | --- | --- | --- | --- |
| CC(C)N(CCNC(=O)CN1CCCC1=O)C(C)C [Pramiracetam, reference compound] | – | 10000 | – | Ki [3, 9]: 10000 nM; S1/S2 Ratio ([3]; Table 11, sigma-1/sigma-2): 1.000 |
| C[C@@H](Cc1ccccc1)N(C)CCCCCc1ccccc1 [Compound 69] | 2.25 | – | 891 | – |
| OCCN1CCN(CCCN2c3ccccc3Sc3ccc(Cl)cc32)CC1 [Perphenazine, reference compound] | – | 80.4 | – | Ki [3, 9]: 25.1 nM; S1/S2 Ratio ([3]; Table 11, sigma-1/sigma-2): 0.312 |
| OC(CCCN1CCN(c2ncc(F)cn2)CC1)c1ccc(F)cc1 (stereo not drawn) [BMY-14802, reference compound] | – | – | – | Ki [2, 5]: 133 nM |
| c1ccc(CCCCN2CCC(c3ccccc3)CC2)cc1 [Compound 81] | 0.88 | – | 43.9 | – |
| c1ccc(CCCCCCNCCCc2ccccc2)cc1 [Compound 110] | 3.62 | – | 117 | – |
| c1ccc(CCCNC2CCCc3ccccc3C2)cc1 (stereo not drawn) [Compound 67] | 59.6 | – | 19.3 | – |
| c1ccc(CCCCNCCCCc2ccccc2)cc1 [Compound 73] | 6.98 | – | 55.7 | – |
| C[C@@H]1CN(CCCn2c3ccccc3c3ccccc32)C[C@H](C)N1 [Rimoazole, reference compound] | – | 265 | – | – |
| CN(C)CCCN1c2ccccc2Sc2ccc(Cl)cc21 [Chlorpromazine, reference compound] | – | 714 | – | Ki [3, 9]: 336 nM; S1/S2 Ratio ([3]; Table 11, sigma-1/sigma-2): 0.471 |
| c1ccc2cc(N3CCNCC3)ccc2c1 [Compound 60, N-(2-Naphthyl)piperazine] | – | – | – | Ki [2, 5]: 5600 nM; Ki [3, 6]: 220 nM |
| Clc1ccc(N2CCN(CCCc3ccccc3)CC2)cc1 [Compound 78] | 3.01 | – | 98.4 | – |
| OC1(Cc2ccccc2)CCN(CCCCCc2ccccc2)CC1 [Compound 118] | 2.14 | – | 1970 | – |
| CC(C)(C)[C@]1(O)CCN2C[C@H]3c4ccccc4CCc4cccc(c43)[C@@H]2C1 [(+)Butaclamol, reference compound] | – | 1400 | – | – |
| c1ccc(CCCCCN2CCC(c3ccccc3)CC2)cc1 [Compound 82] | 0.96 | – | 136 | – |
| O=C1c2ccccc2C(=O)N1CCCCCN1CCN(c2ccccc2)CC1 [Compound 98] | 6.18 | – | 2.23 | – |
| CC(C(O)c1ccc(O)cc1)N1CCC(Cc2ccccc2)CC1 (stereo not drawn) [Ifenprodil, reference compound] | – | 2.39 | – | – |
| COc1cc(CC(C)NCCCCc2ccccc2)c(OC)cc1Br (stereo not drawn) [Compound 66] | 45.1 | – | 272 | – |
| c1ccc(CCCCCNCC2CCCCC2)cc1 [Compound 93] | 1.4 | – | 597 | change in sigma affinity, words ([1]; Example 6): binds with twice the affinity; Ki ([1]; Examples 5 and 6): 1.2 nM |
| c1ccc(CCCNCCCC2CCCCC2)cc1 [Compound 92, N-(3-Cyclohexylpropyl)-3-phenylpropylamine Hydrochloride] | 2.99 | – | 26.3 | Ki ([1]; Examples 5 and 6): 2.4 nM |
